From patent publication US20240216513A1, “FATTY ACID-BIFUNCTIONAL DEGRADER CONJUGATES AND THEIR METHODS OF USE” (Novartis AG, priority 2021, published 2024)
Where two headings read alike, the source gives them in different places.

Legend:
[1] = BTK FAC plasma stability assay, mouse plasma; assay type: in vitro ADME; details: incubation to 24 h
Summary of the method: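 Stability in PBS buffer or EDTA-treated plasma is followed over 24 h at 38 °C with shaking. Protein precipitation with acetonitrile (glyburide 0.2 µM as internal standard) stops each timepoint, and LC-MS/MS gives analyte-to-standard area ratios.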

[2] = In vivo pharmacokinetic study in rats (i.v. or s.c.), FAC and payload in blood; parameters: species or system rat; details: for AUC: male, Sprague-Dawley, rat, whole blood, 1 umol/kg
Experimental: Pharmacokinetic studies were conducted in male C57/B16 mice; male Sprague-Dawley rats; male Beagle dogs and male Cynomolgus monkeys. 3 animals per group were used for each study performed. All studies were performed in accordance with local animal welfare regulations.
[…] Serial 30 µL blood samples were collected via venipuncture of the tail vein in mouse, and via the cannulated jugular vein in rats at defined timepoints to 216 hours (into EDTA coated tubes).
Each blood sample was precipitated with acetonitrile containing internal standard; samples were mixed and centrifuged (20 minutes 4000 RPM at 4° C.). Supernatant was transferred to a microwell plate and evaporated under nitrogen at 60° C. Residue was resuspended in acetonitrile/water (7:3 v/v); plate sealed and transferred to an ultrasonic bath for 3 minutes, prior to analysis. Quantification was performed by LC-MS/MS (SciexAP16500 Q-trap, Shimadzu Nexera X2) using a Phenomenex Polar RP analytical column (2.5 μm particle size; 50×2 mm). The mobile phase consisted of solvent A (0.1% formic acid in water) and solvent B (0.1% formic acid in acetonitrile). The fatty acid conjugate and API were detected using multiple reaction monitoring.
Data analysis and calculation of non-compartmental pharmacokinetic parameters was
performed using an in-house analysis. Following intravenous administration whole blood clearance was calculated by the dose administered divided by AUC0-inf. Volume of distribution at steady state was calculated as MRT*CL, where MRT is the mean residence time, calculated by AUMC0-inf/AUC0-inf. The half-life (t1/2) of the terminal elimination phase was calculated by 0.693/λ. For both intravenous and subcutaneous administration, the systemic exposures were determined by calculating the area under the blood concentration time curve (AUC) from time zero to the last observed quantifiable concentration (AUClast) by using the linear trapezoidal method and normalised to dose. Extrapolated AUC (AUC0-inf) is calculated by addition of AUClast and AUCtlast-inf; where AUCtlast-inf is calculated based on Clast/λ. The slope of the terminal elimination phase was estimated by linear regression of the terminal data points (minimum 3 points) from a natural log concentration versus time plot of the data. Bioavailability was calculated as the dose normalized ratio of […] AUCinf to intravenous AUCinf (100*[SC AUCinf/SC dose]/[IV AUCinf/IV dose]). Following subcutaneous administration Cmax is calculated as the average maximum observed peak concentration and Tmax is the time associated with the determined Cmax.
For PK experiments, non-tumor bearing mice or rats were treated once (10 mL/kg) with a compound either i.v. or s.c. Serial blood samplings from the tail vein (5-20 μl) were collected during the course of the experiment. For PK/PD experiments in tumor-bearing mice, compound was administered once (10 mL/kg) either i.v. or s.c. Animals were randomized into groups of n=3 and tissue samples were collected at several time points. At the times indicated, animals were anaesthetized by exposure to 2-3% v/v isoflurane in medical oxygen. They were sacrificed without recovering from anesthetic after blood sampling into commercially prepared EDTA coated tubes (Milian, cat #TOM-14C) in order to extract plasma. The tissues were excised, weighted and rapidly frozen in liquid nitrogen. Later, tumors were cryogenic dry pulverized with the CryoPrep™ system (model CP-02, Covaris). For efficacy experiments in ectopic tumor-bearing mice, animals were randomized into groups of n=6 for a mean tumor size of 100 mm^3 and compound was administered either i.v. q3w or s.c. q2w. When implanted in brain, animals were randomized into groups of n=4 for a mean bioluminescence of 1.0-2.0E+06 [p/s]/[ρW/cm^2] and compound was administered i.v. qw. Tumor response were reported with the measures of tumor volumes or bioluminescence from the treatment start. […]

COc1ccc(C(=O)N2CCC3(CCN(CCc4ccc(-c5cc6c(-c7cc(F)cc(NC(=O)c8ccc(C(C)(C)O)cc8F)c7C)ncnc6[nH]5)cc4)CC3)CC2)cc1N1CCC(=O)NC1=O [Compound V, N-(3-(6-(4-(2-(9-(3-(2,4-Dioxotetrahydropyrimidin-1(2H)-yl)-4-methoxybenzoyl)-3,9-diazaspiro[5.5]undecan-3-yl)ethyl)phenyl)-7H-pyrrolo[2,3-d]pyrimidin-4-yl)-5-fluoro-2-methylphenyl)-2-fluoro-4-(2-hydroxypropan-2-yl)benzamide]
Plasma stability (h) mouse [1]: 27.1 h
Payload C0-uM (unconjugated degrader dosed, second payload cell) ([2]; API i.v., species taken as rat, listed as note (1 umol/kg)): 1.1 µM
AUC ([2]; iv, API i.v., species taken as rat, listed as note (1 umol/kg), read-out: Payload AUC-uM.h (unconjugated degrader dosed, second payload cell)): 0.57 µM·h
AUC ([2]; sc, subcutaneous dosing, unconjugated Compound V at 1 umol/kg, read-out: Payload AUC): 0.57 µM·h
